These results are taken from patent US8337858B2, “Extracts of Aphanizomenon Flos Aquae and nutritional, cosmetic and pharmaceutical compositions containing the same” (Nutratec S.R.L., priority 2006, dated 2012).

Like-named read-outs stand apart in the source and are kept apart here.

The conditions of data set [1]: Ou et al., 2001; cited from earlier work.
Data set [2] is described as follows: ORAC (Oxygen Radical Absorbance Capacity) assay with fluorescein and AAPH. It is filed as biochemical. The conditions noted are these: for ORACFL value expressed per mg: recalculated from Ou et al., 2001; for ORAC value: fluorescein, AAPH 4 mM, 37° C. On the procedure: The ORAC assay was carried out at 37° C. on a FLUOstar OPTIMA spectrofluorimeter (BGM LABTECH, Germany) at 485 nm excitation and 520 nm emission, using the method of Ou et al. (32) with minor modifications. Briefly, in the final assay mixture, fluorescein (FL) (0.05 μM) was used as a target of free radical attack, with AAPH (4 mM) as a peroxyl radical generator. Trolox (1 μM) was used as a control standard and phosphate buffer as a blank. The concentrations of tested compounds in the assay mixture ranged from 0.025 μM to 2 μM. All substances were dissolved and diluted with 75 mM Na-phosphate buffer pH 7; PCB solution was made by dissolving the compound first in ethanol and then bringing the solution to the desired concentration with the buffer. All samples were run in triplicate. Fluorescence was recorded every 5 min after AAPH was added. Final results (ORAC values) were calculated using the differences in the areas under the fluorescence decay curves (AUC) between the sample and blank and expressed as Trolox equivalents: ORAC value=[(AUCsample−AUCblank)/(AUCtrolox−AUCblank)]×(molaritytrolox/molaritysample)
To evaluate the antioxidant capacity of the extract in terms of the ORAC test, we used the same methodology we used to test the ORAC for PC and PCB. In order to test both the water soluble and the lipid soluble components of the AFA extract, we first prepared the two water and lipid soluble extracts, as follows.
Preparation of the Water Soluble Extract • Weigh 10 mg of extract in 1 ml of distilled water and homogenize for 1 min through a mechanical potter. • Centrifuge at 2500 rpm for 10′ at 4° C. to remove cellular debris. • Collect the supernatant and resuspend the pellet in 1 ml of water. • Homogenize for 1 min with a mechanical potter. • Centrifuge at 2500 rpm for 10′ at 4° C. • Collect the supernatant and mix with that obtained from the first water extraction. • Preserve the water extract (with a blue color for the presence of the PC) at +4 o-20° C.
Preparation of the Lipid Soluble Extract • Resuspend the pellet obtained from the previous extraction in 1 ml of acetone. • Homogenize for 1 min with a mechanical potter. • Centrifuge at 2500 rpm for 10′ at 4° C. • Collect the supernatant and resuspend the pellet in 1 ml of acetone. • Homogenize for 1 min with a mechanical potter. • Centrifuge at 2500 rpm for 10′ at 4° C. • Collect the supernatant and mix with that obtained from the first extraction with acetone. • Preserve the lipophilic extract (with an orange color for the presence of carotenes) at +4°-20° C.

Data set [3] has as its target T1, COX-2 (Homo sapiens, UniProt P35354).
T1 construct: purchased Cayman
T1 sequence (P35354 18-604): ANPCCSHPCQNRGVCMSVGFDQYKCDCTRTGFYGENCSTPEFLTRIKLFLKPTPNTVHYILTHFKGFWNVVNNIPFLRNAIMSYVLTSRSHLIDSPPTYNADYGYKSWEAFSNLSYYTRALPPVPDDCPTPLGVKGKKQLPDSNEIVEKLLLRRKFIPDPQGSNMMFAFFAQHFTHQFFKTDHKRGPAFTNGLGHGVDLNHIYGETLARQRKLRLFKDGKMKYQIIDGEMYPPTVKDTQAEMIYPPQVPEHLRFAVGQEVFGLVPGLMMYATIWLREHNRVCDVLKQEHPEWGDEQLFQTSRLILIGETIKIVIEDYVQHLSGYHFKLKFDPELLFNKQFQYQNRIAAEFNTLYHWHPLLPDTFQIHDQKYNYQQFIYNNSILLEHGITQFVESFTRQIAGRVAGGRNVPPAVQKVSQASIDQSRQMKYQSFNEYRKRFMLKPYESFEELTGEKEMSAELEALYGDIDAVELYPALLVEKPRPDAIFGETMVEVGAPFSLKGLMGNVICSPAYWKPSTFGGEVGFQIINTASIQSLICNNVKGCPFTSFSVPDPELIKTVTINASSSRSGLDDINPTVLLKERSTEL
Nature of the data set: COX Inhibitor Screening Assay (Cayman), COX-2. It is filed as biochemical. The conditions noted are these: 0-15 μM. The method, then:
(§1) Given that the phycocyanins from Klamath AFA algae are different from the ones from Spirulina, ands that no test has ever been done on their effect on the COX enzymes, we decided to perform such test through the immunoenzymatic kit “COX Inhibitor Screening Assay” of the Cayman company. We thus evaluated the COX-1 and COX-2 inhibition by the AFA extract (both the water soluble part in water, and the lipid soluble in acetone; range 25-200 μg/ml); by the pure PC (0.03-3 μM) and PCB (0-15 μM). The results are shown in FIG. 29, presenting the graphic of the percent activity of COX-1 and COX-2 at the different concentrations of AFA extract, PC and PCB.

Data set [4] has as its system Jurkat cells. Nature of the data set: Intracellular dichlorofluorescein fluorescence in Jurkat cells oxidized with H2O2. The class given is cell-based. The method, then:
Starting from the Basic extract, and following the methodology already described, we have purified the AFA-phycocyanin, with its C-PC/PEC complex, to test its antioxidant properties on live cultured cells. The Jurkat cells (immortalized line of leucemia T-lymphocytes) have been subjected to oxidative stress with 500 μM H2O2, together or without increasing dosages of AFA-PC and PCB. The fluorescence emitted by the intracellular probe (dichlorofluorescein), following oxydation from H2O2, has been recorded after 30 minutes of incubation with H2O2 through a fluorimeter (exc. at 492 nm and emission at 520 nm). By incubating cells with both AFA-PC (range 0.1-10 μM) and 500 μM H2O2 for 30 minutes we observe a dose-dependent protective effect with a reduction of intracellular fluorescence induced by H2O2, with an IC50 of 0.5 μM, and a 100% inhibition (non-oxidized cells) at 10 μM (FIG. 13).
The antioxidant properties of the whole PC, composed of C-PC and PEC, resides in its chromophores, which are phycocyanibilin (PCB) for C-PC and both PCB and PVB (phycoviolobilin) for PEC. We have purified the C-PC chromophore PCB, to test it on cultured cells oxidized with H2O2 (range FCB 0.1-40 μM). Also in this case we observe a dose-dependent antioxidant effect with an IC50 of 0.5 μM, and a 100% inhibition (non-oxidized cells) at 40 μM (FIG. 13).
Most importantly, to evaluate the cellular absorption of PC and PCB, both compounds have been pre-incubated for 2 hrs. with the cells; afterwards, the medium has been washed, to exclude any unabsorbed PC and PCB, and the cells have been oxidized for 30 min. with H2O2. As shown by the FIG. 14, there is a dose-dependent inhibition of intracellular fluorescence. This means that the cell is able to retain both antioxidant molecules, either in the membrane or in the cytoplasm.

Data set [5] deals with T2, COX-1 (Ovis aries, UniProt P05979).
T2 construct: purchased Cayman
T2 sequence (P05979 25-600): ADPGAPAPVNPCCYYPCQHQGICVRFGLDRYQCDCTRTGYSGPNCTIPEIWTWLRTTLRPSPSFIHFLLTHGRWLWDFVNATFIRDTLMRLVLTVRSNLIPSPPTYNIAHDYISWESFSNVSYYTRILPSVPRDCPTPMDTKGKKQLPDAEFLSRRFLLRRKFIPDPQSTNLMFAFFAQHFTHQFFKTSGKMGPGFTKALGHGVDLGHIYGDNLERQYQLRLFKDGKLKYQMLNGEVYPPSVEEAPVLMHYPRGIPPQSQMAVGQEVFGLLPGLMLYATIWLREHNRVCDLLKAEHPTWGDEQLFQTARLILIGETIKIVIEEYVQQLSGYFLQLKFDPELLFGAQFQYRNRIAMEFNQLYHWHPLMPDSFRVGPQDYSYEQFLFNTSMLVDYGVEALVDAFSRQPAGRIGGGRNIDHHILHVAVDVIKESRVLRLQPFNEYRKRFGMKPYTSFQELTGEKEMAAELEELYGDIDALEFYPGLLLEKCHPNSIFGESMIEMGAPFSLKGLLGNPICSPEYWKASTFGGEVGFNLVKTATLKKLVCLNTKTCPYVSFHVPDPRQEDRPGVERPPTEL
Nature of the data set: COX Inhibitor Screening Assay (Cayman), COX-1. The class given is biochemical. On the procedure:
as §1

For data set [6], the system named is human plasma oxidized by CuCl2. The data set is described as follows: MDA (TBA test) formation in human plasma oxidized by CuCl2. The settings on record: read-out: IC50, metal-induced oxidation of plasma lipids (MDA); plasma incubated 2 hours at 37° C. with CuCl2 (FIG. 9A panel B).

For `Oc1cc(O)c2c(c1)O[C@H](c1ccc(O)c(O)c1)[C@@H](O)C2` [(+)-catechin], in data set [1], the ORACFL value was 6.76 μmol Trolox/μmol compound. In data set [2], the “ORACFL value expressed per mg” value is 23.3 μmol Trolox/mg compound.

The compound `O=C1O[C@H]([C@@H](O)CO)C(O)=C1O` [AA] returned an ORAC value in data set [2] of 0.75 Trolox equiv.

Regarding `N[C@@H](CCC(=O)N[C@@H](CS)C(=O)NCC(=O)O)C(=O)O` [GSH, reduced glutathione], the ORAC value in data set [2] is listed as 0.57 Trolox equiv.

For the compound `O=c1c(O)c(-c2ccc(O)c(O)c2)oc2cc(O)cc(O)c12` [quercetin], the ORACFL value in data set [1] is reported as 7.28 μmol Trolox/μmol compound. In data set [2], the “ORACFL value expressed per mg” value is reported as 24.0 μmol Trolox/mg compound.

Usually IC50 stands for the concentration needed to halve the response being measured. With phycocyanobilin [PCB], the “COX-2 inhibition” value in data set [3] was “scarcely inhibitor of the COX-2”. Further, the “inhibition of intracellular fluorescence” value in data set [4] (40 μM, together with H2O2) is 100%. Moreover, the “oxidative effect (increase of intracellular fluorescence)” value in data set [4] (incubated 30 minutes with cells without H2O2) is on record as “do not have any oxidative effect”; in data set [4] (incubated 2 hrs. with cells), “did not produce any oxidative effect”. The IC50 in data set [4] (incubated together with 500 μM H2O2 for 30 minutes (FIG. 13), read-out: IC50, reduction of intracellular fluorescence induced by H2O2) was 500 nM; in data set [4] (pre-incubated 2 hrs., medium washed, then H2O2 30 min (FIG. 14), read-out: IC50, inhibition of intracellular fluorescence, absorption test) it was 1900 nM; in data set [6], approximately 160 nM. Besides, in data set [4] (pre-incubated 2 hrs., medium washed, then H2O2 30 min (FIG. 14)), the “protection, absorption test” value is “more than 90%”. Besides, in data set [5], the “effect on COX-1 activity” value is “increases the COX-1 activity”. In data set [2], the “ORAC value expressed per mg” value turned out to be 37.0 μmol Trolox/mg. For the same compound, the ORAC value in data set [2] stood at 22.18 Trolox equiv.
